Common to all, as to assay: radioligand saturation binding, CHO membranes
Experiment [1] addresses MOR-1O (untagged) (Mus musculus, UniProt P42866).
For experiment [2], the target named is MOR-1O-PK (Mus musculus, UniProt P42866).
For experiment [3], the target named is MOR-1 (untagged) (Mus musculus, UniProt P42866).
Experiment [4] addresses MOR-TR-PK (Mus musculus, UniProt P42866, DEL387-398).
Experiment [5] addresses MOR-1-PK (Mus musculus, UniProt P42866).

Broadly, the Kd is the constant that tells how readily two partners part at equilibrium. A higher Kd goes with lower affinity.

For the compound `O=C(N[C@@H]1CC[C@@]2(O)[C@H]3Cc4ccc(O)c5c4[C@@]2(CCN3CC2CC2)[C@H]1O5)c1cccc(I)c1` [[^125I]IBNtxA], the Kd in experiment [1] was 0.2 ± 0.07 nM; in experiment [2] it was 0.24 ± 0.11 nM; in experiment [3], 0.13 ± 0.03 nM; in experiment [4], 0.1 ± 0.02 nM; in experiment [5], 0.1 ± 0.01 nM.

These data come from PMC8026774 (Cellular and molecular neurobiology, 2020).
